{"source": "patent US20080096853A1", "about": "“Edible Compositions Comprising A Primary Lipid, A Co-Lipid, A Lipohilic Physiologically Active Ingredient And Water, And Their Preparation” (priority 2004, published 2008)", "format_in_all_cases": "physicochemical", "key": {"[1]": {"test": "USP24 dissolution test type II: solubility of β-carotene in bile extract solution", "conditions": "900 ml bile extract solution in aqueous buffer, 37° C., stirring in USP24 for 60 min", "method": "6 mg of β-carotene and 2 g of lactic fatty acid ester+glycerol/propylene glycol reaction product (LFEGPG) were dissolved at 55° C. in 10 ml of ethanol. This solution was added dropwise to 200 ml of intensely agitated Tris buffer ([…]). After 15 minutes of stirring, the solution was cooled down and the pH adjusted to 4.0 with 1M HCl. The precipitate was then filtrated and LFEGPG lipid phase containing molecularly-dispersed β-carotene was used further in this experiment.\nThe precipitate was added to the USP24 vessel (dissolution test type II) loaded with 900 ml of bile extract solution in aqueous buffer at 37° C. As a control, 6 mg of free crystalline β-carotene was added to the same buffered bile solution in USP24."}, "[2]": {"test": "Incorporation of β-carotene into LFEGPG in model systems (UV-Vis after centrifugation and hexane extraction)", "method": "• (1) A. 1 g LFEGPG and 2.4 mg pure β-carotene were added to 100 ml water, followed by magnet stirring for 1 h at 50° C. 1.7 mg β-carotene/g dry LFEGPG were detected by UV-Vis spectrophotometry after centrifugation and extraction of β-carotene from the collected lipid phase by hexane. • B. 1 g LFEGPG and 2.4 mg pure β-carotene were melted together and added dropwise to 100 ml water, followed by magnet stirring for 20 min at 50° C. Ultra Turrax was applied to homogenize the sample, then the sample was magnet stirred for another 10 min at 50° C. […] Polymorphic or mesomorphic lipid phases containing molecularly dispersed β-carotene were derived (judged from appearance under microscope, however also a few free β-carotene crystals were detected, thus not completely molecularly dispersed). • (4) As the solubility of β-carotene in ethanol is limited, complete molecular dispersion of β-carotene was achieved by the use of non food-grade solvents such as chloroform. […] The lipid phase was investigated under the optical light microscope, and no β-carotene crystals could be detected. • (5) 0.2 g of LFEGPG and 2 mg β-carotene as well as 0.2 g a LFEGPG/Datem (diacetyl tartaric acid esters of mono- and diglycerides) mixture (93/7, by wt) and 2 mg β-carotene were dissolved in chloroform. […]"}, "[3]": {"test": "In situ incorporation of carotenoids from carrot juice into LFEGPG (absorbance at 448 nm)", "conditions": "Silverson", "method": "• 1) 1 g solid LFEGPG was added to 100 ml cold carrot juice (97% pure fresh carrot juice, Zonnatura B.V Zoetermeer, Netherlands). The mixture was warmed up to 50° C. and kept at this temperature for 30 min with magnetic stirring. Homogenization was performed with a Silverson homogenizer at ˜5500 rpm followed by another hydration step for 5 min at 50° C. • The LFEGPG phase was filtrated, collected and dissolved in hexane. The β-carotene content was determined spectrophotometrically (absorbance at 448 nm) to be 0.68 mg β-carotene/g dry lipid phase (corrected for a water content of the hydrated LFEGPG phase of 30%). • (2) 2 g LFEGPG were melted at 50° C. and added dropwise to 100 ml carrot juice kept at 50° C. Magnet stirring was performed for 1 hour at 50° C., then the solution was homogenized with a Silverson homogenizer (4500 rpm for 1 minute) and magnet stirred at 50° C. for another 1 hour. The LFEGPG phase was collected by filtration and dissolved in hexane. The β-carotene content was spectrophotometrically determined (absorbance at 448 nm) to be 1.5 mg β-carotene/g dry LFEGPG. […] Magnet stirring was performed for 20 min at 50° C., Silverson (4500 rpm, 1 min.), and magnet stirred at 50° C. for another 10 min at 50° C. The LFEGPG phase was collected by filtration and dissolved in hexane. The β-carotene content was spectrophotometrically determined (absorbance at 448 nm) to be 2.0 mg β-carotene/g dry LFEGPG."}}, "data": [{"smiles": "CC1=C(/C=C/C(C)=C/C=C/C(C)=C/C=C/C=C(C)/C=C/C=C(C)/C=C/C2=C(C)CCCC2(C)C)C(C)(C)CCC1", "note": "[β-carotene]", "values": [{"measurement": "solubility of β-carotene in the bile solution, from the initial amount (6 mg)", "setting": "[1]", "result": "~0", "unit": "%"}, {"measurement": "β-carotene detected in collected lipid phase", "setting": "[2]; Example 6 (1) A: 1 g LFEGPG and 2.4 mg β-carotene added to 100 ml water, stirred 1 h at 50° C.", "result": "1.7 mg β-carotene/g dry LFEGPG"}, {"measurement": "β-carotene recovered", "setting": "[2]; Example 6 (1) B: 1 g LFEGPG and 2.4 mg β-carotene melted together, added dropwise to 100 ml water, Ultra Turrax", "result": 2.2, "unit": "mg"}, {"measurement": "β-carotene content of LFEGPG phase", "setting": "[3]; Example 7 (1): 1 g solid LFEGPG in 100 ml cold carrot juice, 50° C. 30 min, corrected for 30% water content", "result": "0.68 mg β-carotene/g dry lipid phase"}, {"measurement": "β-carotene content of LFEGPG phase", "setting": "[3]; Example 7 (2): 2 g molten LFEGPG in 100 ml carrot juice, 1 hour stirring, another 1 hour, 50° C.", "result": "1.5 mg β-carotene/g dry LFEGPG"}, {"measurement": "β-carotene content of LFEGPG phase", "setting": "[3]; Example 7 (3): 1 g molten LFEGPG in 100 ml carrot juice, 20 min stirring, another 10 min, 50° C.", "result": "2.0 mg β-carotene/g dry LFEGPG"}]}]}
